Data from article PMC5442318, “Hundreds of dual-stage antimalarial molecules discovered by a functional gametocyte screen” (Nature Communications, 2017).
Where two headings read alike, the source gives them in different places.

Key:
HepG2 cells = assay: HepG2 cytotoxicity assay; format: cell-based
Method in brief: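 Post-incubation CellTiter-Glo luminescence; 30 min RT equilibration, 10 min RT stabilization before reading.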

[1] = test system: P. falciparum stages IV–V gametocytes; assay: Gametocytocidal ATP-depletion assay (gametocyte ATP bioluminescence); format: cell-based, Plasmodium falciparum; conditions: for inhibition at 2 µM: Plasmodium falciparum, mean
Method in brief: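 Purified stage IV–V gametocytes (12,500/well) incubated with compound for 48 h at 37 °C under 3% O2/5% CO2. ATP measured by BacTiter-Glo luminescence as a viability surrogate; hits tested at 2 μM single concentration.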

[2] = test system: P. falciparum female gametes; assay: Pf FGAA with compounds added 30 min after triggering gametocyte activation (gamete-targeting); format: cell-based, Plasmodium falciparum NF54; conditions: 0h incubation time
[3] = test system: P. falciparum stage V female gametocytes; assay: P. falciparum female gametocyte activation assay (Pf FGAA), 24 h or 48 h preincubation, Pfs25 expression readout; format: cell-based, Plasmodium falciparum NF54; conditions: for Pf FGAA classification: SLOW / FAST / GAMETE from activity at 48h, 24h, 0h incubation
Method in brief: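 Purified stage V gametocytes from P. falciparum NF54 gametocyte cultures were exposed to compounds for 24 h or 48 h at 37 °C under 3% O2/5% CO2, then activated by temperature drop plus xanthurenic acid. Activated females were stained with Cy3-anti-Pfs25 (0.5 μg ml^−1) for 24 h at 26 °C and counted by high-content imaging; pIC50 by nonlinear regression.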

[4] = test system: P. falciparum asexual blood stages; conditions: cited from earlier work; for IC50: read-out: Pf Asexual blood stages XC50
[5] = 24h incubation time, read-out: Pf FGAA IC50 (µM) 24h
[6] = P. falciparum female gametocytes, mean, read-out: Gametocytes mean Pf FGAA IC50
[7] = TCAMS asexual blood stage data, ref 1 (Gamo, F. J. et al., Nature 465, 305-310, 2010)
[8] = TCAMS data, ref 1 (Gamo, F. J. et al., Nature 465, 305-310, 2010)
[9] = mean, read-out: Gametocytes mean Pf FGAA IC50
[10] = TCAMS data, ref 1 (Gamo et al., 2010)
[11] = HepG2 TOX50 versus Pf FGAA IC50
[12] = Plasmodium falciparum, 24h incubation time, read-out: Pf FGAA IC50 (µM) 24h
[13] = Plasmodium falciparum, P. falciparum female gametocytes, mean, read-out: Gametocytes mean Pf FGAA IC50
[14] = mean, P. falciparum female gametocyte activation assay, read-out: Gametocytes mean Pf FGAA IC50

SMILES	IC50 [2] [µM]	IC50 [3, 5] [µM]	HepG2 cells mean TOX50 (HepG2 cells; HepG2 cells; mean) [µM]	Gametocytes mean ATP inhibition at 2µM [1] [%]	IC50 [3, 6] [µM]	Pf FGAA classification [3]	IC50 [4, 7] [nM]	Pf Asexual stages XC50 [4, 8] [nM]	HepG2 cells mean TOX50 (HepG2 cells; mean) [µM]	IC50 [4, 10] [nM]	further results
Cc1ccc(C)c2sc(N3CCN(C(=O)c4ccc([N+](=O)[O-])o4)CC3)nc12 [TCMDC-124315]	> 20	2.82	37.65	3.06	1.12	SLOW	820	820			
O=C(O)C(F)(F)F.O=S(=O)(NCCN1CCCC1)c1ccc(-c2cccc(CNC3Cc4ccccc4C3)c2)s1 [TCMDC-132217]	> 20	5.37	5.50	18.03	1.29	SLOW	750	750			
CN1CCC(NCc2cccc(-c3ccc(S(=O)(=O)NCc4ccccc4)c(F)c3)c2)CC1.O=C(O)C(F)(F)F [TCMDC-132219]	> 20	12.2	5.13	-1.59	2.63	SLOW	320	320			
O=C(c1ccc([N+](=O)[O-])o1)N1CCN(c2nc3c(Cl)cccc3s2)CC1 [TCMDC-124316]			41.96			FAST	980	980			Selectivity ratio (HepG2 cells; [11]): 38.14; inhibition at 2 µM [1]: 0.49%; IC50 ([2]; Plasmodium falciparum): > 20 µM; IC50 [3, 12]: 1.38 µM; IC50 [3, 13]: 1.1 µM
FC(F)(F)c1ccc2[nH]c(-c3ccc(-c4ccc(CNCCN5CCNCC5)cc4)cc3)nc2c1.O=C(O)C(F)(F)F [TCMDC-132865]	> 20	> 20	16.43	-10.30	1.41	SLOW	1120	1120			
COC(=O)c1ccc(-c2ccc(C(=O)NCC3CCN(c4nc(N)c5cc(OC)c(OC)cc5n4)CC3)cc2)cc1 [TCMDC-138721]	13.5	1.88				FAST		190	6.10	190	Gametocytes mean ATP inhibition at 2µM (%) [1]: 31.66%; IC50 [3, 9]: 0.91 µM
C=CCc1cccc(CN2CCC(c3cc(O)nc(-c4ccccn4)n3)CC2)c1O [TCMDC-124851]			11.49			FAST	1100	1000			Selectivity ratio (HepG2 cells; [11]): 6.59; inhibition at 2 µM [1]: 17.9%; IC50 ([2]; Plasmodium falciparum): 2.42 µM; IC50 [3, 12]: 0.71 µM; IC50 [3, 13]: 1.74 µM
O=C(NCC1CCN(Cc2cccc(C(F)(F)F)c2)C1)c1cc(-c2cccc(C(F)(F)F)c2)cs1.O=C(O)C(F)(F)F (stereo not shown) [TCMDC-134483]	> 20	2.45	16.22	-4.13	1.65	SLOW	610	610			
CC(C)(CNC(=O)[C@@H]1CCCCN1)c1nc(-c2ccc(Cl)c(O)c2)c(-c2ccncc2)[nH]1.Cl [TCMDC-141079]	2.06	2.48		-6.33		GAMETE	840	840			HepG2 cells mean TOX50 (HepG2 cells; mean; HepG2 cells): 38.91 µM; IC50 [3, 14]: 1.58 µM
CN(C)c1ccc(-c2csc(C(=O)NCC3CCN(Cc4cccc(C(F)(F)F)c4)C3)c2)cc1.O=C(O)C(F)(F)F (stereo not shown) [TCMDC-134486]	> 20	2.56	8.18	-14.11	1.56	SLOW	840	840			
CN1CCC=C(C(=O)NCC(C)(C)c2nc(-c3ccc(Cl)c(O)c3)c(-c3ccncc3)[nH]2)C1.Cl [TCMDC-140700]	1.61	4.68				GAMETE		1000	13.36	1000	Gametocytes mean ATP inhibition at 2µM (%) [1]: -6.01%; IC50 [3, 9]: 1.91 µM
Cc1ccc(S(=O)(=O)N(CCCNCc2cccc(O)c2)c2ccccc2)cc1 [TCMDC-138022]						SLOW		770	44.67	770	Selectivity ratio (HepG2 cells; HepG2 TOX50 vs Pf FGAA IC50): 39.21; inhibition at 2 µM [1]: 32%; IC50 ([2]; Plasmodium falciparum): > 20 µM; IC50 [3, 12]: > 20 µM; IC50 ([3]; Plasmodium falciparum, mean, read-out: Gametocytes mean Pf FGAA IC50): 1.14 µM

More lines, main results first:

IC50 [2] [µM]	IC50 [3, 5] [µM]	SMILES	HepG2 cells mean TOX50 (HepG2 cells; HepG2 cells; mean) [µM]	Gametocytes mean ATP inhibition at 2µM [1] [%]	IC50 [3, 6] [µM]	Pf FGAA classification [3]	IC50 [4, 7] [nM]	Pf Asexual stages XC50 [4, 8] [nM]	HepG2 cells mean TOX50 (HepG2 cells; mean) [µM]	IC50 [4, 10] [nM]	further results
> 20	9.4	CCN(CC)CCN(Cc1ccc(-c2ccc(Cl)cc2)cc1)C(=O)Cn1cc(CN(C)C)c(=O)nc1SCc1ccc(F)cc1 [TCMDC-140406]				SLOW		750	6.61	750	Gametocytes mean ATP inhibition at 2µM (%) [1]: -10.76%; IC50 [3, 9]: 1.38 µM
> 20	1.57	CNCCCNCc1ccc(-c2ccc(F)c(Cl)c2)o1.Cl [TCMDC-125237]	10.60	-1.51	1.87	FAST	750	750			
2.27	2.58	CN(C)CCNCc1cccc(-c2ccc3c(Nc4ccc(Oc5ccccn5)cc4)ccnc3c2)c1 [TCMDC-138493]				GAMETE		230	3.98	230	Gametocytes mean ATP inhibition at 2µM (%) [1]: 38.43%; IC50 [3, 9]: 0.82 µM
> 20	1.75	O=C(Nc1ccc(-c2ccccc2)c(OCCN2CCNCC2)c1)c1ccc(-c2ccc(Cl)cc2)cc1 [TCMDC-138818]				FAST		840	4.95	780	Gametocytes mean ATP inhibition at 2µM (%) [1]: 1.63%; IC50 [3, 9]: 1.38 µM
> 20	1.58	CN(C)CCN1CCN(CCCN2c3ccccc3Sc3ccc(C(F)(F)F)cc32)CC1.Cl [TCMDC-142257]		23.41		FAST	760	760			HepG2 cells mean TOX50 (HepG2 cells; mean; HepG2 cells): 77.62 µM; IC50 [3, 14]: 5.25 µM
